# Measured values reported in PubChem BioAssay AID463206 (Broad Institute, 2010).
# Activity calls are given as the source filed them.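 The calls were made as follows: active = caspase luminescence falls with dose and the half-maximal concentration AC50 from the fitted curve is at or below a set limit; inconclusive = flat fit at 30 to 70% signal loss, or invalid fit; inactive = AC50 above the limit, or signal rises instead.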
# Test system: INS-1E cytokine-induced caspase-3/7, Caspase-Glo luminescence, 48 h
# Assay: inhibitors of cytokine-induced caspase-3/7 activity, dose response, orthogonal assay for beta-cell apoptosis protection project, INS-1E rat cells, luminescence (AID 463206)
row,SMILES,AC50
1,COc1ccc(S(=O)(=O)/N=C2\C=C(Nc3ccc(O)cc3)C(=O)c3ccccc32)cc1,> 26 µM (inactive)
2,CC1=NNC(=O)/C1=C\c1cn(-c2ccccc2)nc1-c1ccc(Cl)cc1,> 26 µM (inactive)
3,Cc1ccc(/C=N/NC(=O)Cc2ccc(Cl)cc2)c(O)c1,> 26 µM (inactive)
4,O=C(CSC1=NCCS1)Nc1ccnc2ccccc12,> 26 µM (inactive)
5,C/C(=N\Nc1nc(C)cc(-c2ccccc2)n1)c1cccc(N)c1,> 26 µM (inactive)
6,CCN(CC)c1ccc(/C=N/NC(=O)c2ccco2)c(O)c1,> 26 µM (inactive)
7,Cc1ccc(C2CC(c3cccc(C)c3)n3nc(N)nc3N2)cc1 (centres undefined),> 26 µM (inactive)
8,Cc1ccc(-c2c[n+](Cc3ccc(Cl)cc3)c3n2CCC3)cc1,> 26 µM (inactive)
9,CC(C)c1ccc2c(c1)C(N1CCNCC1)Cc1ccc(F)cc1S2 (centres undefined),> 26 µM (inactive)
10,COc1ccc(/C=C/c2cc(-c3ccc(C)cc3)o[n+]2C)cc1,> 26 µM (inactive)
11,Cc1cccc(C(=O)Nc2ccc(C(=O)/C=C/c3cccnc3)cc2)c1,> 26 µM (inactive)
12,O=C(N/N=C/c1sc2ccccc2c1O)c1ccccc1,> 26 µM (inactive)
13,COc1ccc(C(=O)NCC(=O)N/N=C/c2ccc([N+](=O)[O-])s2)cc1OC,> 26 µM (inactive)
14,CCCC1CCC(c2ccc(C(=O)NN)cc2)CC1 (centres undefined),> 12 µM (inactive)
15,O=C(Nc1nc2ccccc2[nH]1)c1ccccc1F,> 26 µM (inactive)
16,CC(C)(C)OC(=O)NCCCCCc1cn([C@@H](CO)C(=O)NCCCCCCCCCCC(=O)N2CCN(C(=O)OC(C)(C)C)CC2)nn1,> 26 µM (inactive)
17,CC1CCN(Cc2c(C(=O)N/N=C/c3ccccc3O)nnn2-c2nonc2N)CC1,> 26 µM (inactive)
18,O=C(N/N=C\c1c(O)ccc2ccccc12)c1ccc(S(=O)(=O)N2CCCCC2)cc1,> 26 µM (inactive)
19,C[n+]1c2n(c3ccccc31)N=C(c1cc(C(C)(C)C)c(O)c(C(C)(C)C)c1)CS2,> 26 µM (inactive)
20,Cc1c(N/N=C(\C#N)C(=O)c2ccc(Cl)cc2)c(=O)n(-c2ccccc2)n1C,> 26 µM (inactive)
21,O=C(NCc1cccnc1)/C(=C/c1ccc(-c2ccc(Cl)cc2)o1)S(=O)(=O)c1ccccc1,> 26 µM (inactive)
22,O=C(Nc1cccc(NC(=O)c2cc([N+](=O)[O-])ccc2Cl)n1)c1cc([N+](=O)[O-])ccc1Cl,3.73 µM
23,COc1ccc(C2=Nn3c([n+](C)c4ccccc43)SC2)cc1,> 26 µM (inactive)

row,SMILES,AC50
1,Cn1nccc1C(=O)N/N=C/c1c(O)ccc2ccccc12,> 26 µM (inactive)
2,O=C(NNC(=S)Nc1ccc(Cl)c(Cl)c1)c1ccccn1,> 26 µM (inactive)
3,CC#CC[N+](C)(C)CCCCCCCCCCCC,> 26 µM (inactive)
4,N#CC1=C(N)Oc2c(ccc3cccnc23)C1c1ccccc1 (centres undefined),> 12 µM (inactive)
5,COc1ccc(-c2cn(-c3ccc(Cl)cc3)c3[n+]2CCCCC3)cc1,> 26 µM (inactive)
6,O=C(Nc1nc(-c2ccccn2)cs1)c1cccc(-n2cnnn2)c1,> 26 µM (inactive)
7,O=C(O)c1ccc(/C=C2\SC(=S)N(Nc3ccccc3)C2=O)cc1,> 26 µM (inactive)
8,CCN(CC)S(=O)(=O)c1cccc(NC(=O)CNc2cccc(S(=O)(=O)N3CCCC3)c2)c1,> 26 µM (inactive)
9,COc1cc(SC)ccc1C(=O)Nc1nc2ccccc2[nH]1,> 26 µM (inactive)
10,Oc1ccc2ccccc2c1/C=N/Nc1nnc(-c2ncc[nH]2)c2ccccc12,> 26 µM (inactive)
11,Cc1ccc(C)c(S(=O)(=O)Nc2cc(SCC(=O)O)c(O)c3ccccc23)c1,> 26 µM (inactive)
12,COc1ccccc1-n1c(=O)oc2ccc(Cl)cc2c1=O,> 26 µM (inactive)
13,C#CCN(C(=O)c1cc(COc2cccc(C(F)(F)F)c2)on1)C1CCCCC1,> 26 µM (inactive)
14,Cc1cc(C(C)(C)C)cc(C)c1C[n+]1ccc2ccccc2c1,> 26 µM (inactive)
15,CCCCCCc1cc2cc(-c3nnc(-c4ccccc4O)o3)c(=O)oc2cc1O,> 26 µM (inactive)
16,COc1ccc(Cn2c(SCc3ccccc3C)nc3cc(OC)c(OC)cc3c2=N)cc1,> 26 µM (inactive)
17,Cc1cc2nc(NCCCO)n(CC(=O)c3cc(C(C)(C)C)c(O)c(C(C)(C)C)c3)c2cc1C,> 26 µM (inactive)
18,C(#Cc1ccccc1)C[N+]1(CC#Cc2cccc3ccccc23)CCCC1,> 26 µM (inactive)
19,CN(C)c1ccc(/C=C/c2ccc3ccccc3n2)cc1,> 26 µM (inactive)
20,O=C(N/N=C/c1cc([N+](=O)[O-])ccc1O)c1cccc(NC(=O)c2cccc(Cl)c2)c1,> 26 µM (inactive)
21,CCN(CC)c1ccc(/C=N/NC(=O)CCC(=O)NCc2ccccc2)c(O)c1,> 26 µM (inactive)
22,C=CCSc1nc2ccccc2n1C(=O)/C=C/c1ccc(OC)c(OC)c1,> 26 µM (inactive)
23,Cc1cc(C)c[n+](C2=C([O-])c3ccccc3C(=O)/C2=N\S(=O)(=O)c2cccs2)c1,> 26 µM (inactive)

row,SMILES,AC50
1,O=C(N/N=C/c1cc(Br)cc(Br)c1O)c1ccncc1,> 26 µM (inactive)
2,CCOc1ccc(-n2c(-c3ccc(Br)cc3)c[n+]3c2CCCCC3)cc1,> 26 µM (inactive)
3,CCC(C)Sc1cccc(-c2nc3ccc(C)cn3c2NCc2ccccc2)c1 (centres undefined),> 26 µM (inactive)
4,C=CCn1c(SCC(=O)c2[nH]c(C)c(C(=O)OCC)c2C)nc2scc(-c3ccc(OC)c(OC)c3)c2c1=O,> 12 µM (inactive)
5,CCCCC1(Cc2ccc([N+](=O)[O-])cc2)C(=O)N(c2ccccc2)N(c2ccccc2)C1=O,> 26 µM (inactive)
6,COc1cccc(C(NC(C)=O)c2ccc3cccnc3c2O)c1 (centres undefined),> 26 µM (inactive)
7,COc1ccc(CNCCC(c2ccccc2)c2ccc3c(c2)OCO3)cc1 (centres undefined),> 26 µM (inactive)
8,COC(=O)c1c(C)oc2ccc(N(C(=O)c3ccncc3)S(=O)(=O)c3ccc4ccccc4c3)cc12,> 26 µM (inactive)
9,COc1ccc2c(c1OC)C(=O)OC2Nc1nc(-c2ccccc2)cs1 (centres undefined),16.1 µM
10,CCN(CC)c1ccc(/C=N/NC(=S)NCc2ccccc2)c(O)c1,> 26 µM (inactive)
11,COc1cc(C(=O)N/N=C(\C)c2ccccn2)cc(OC)c1OC,> 26 µM (inactive)
12,CCn1c(=NC(=O)c2ccc(S(=O)(=O)N3CCOCC3)cc2)sc2cccc(OC)c21,> 26 µM (inactive)
13,COc1cccc(/C=N/Nc2ccnc(=O)[nH]2)c1O,> 26 µM (inactive)
14,CCc1ccc(OCC(=O)NC(NC(=S)Nc2ccc(C)cc2C)C(Cl)(Cl)Cl)cc1 (centres undefined),> 26 µM (inactive)
15,O=C(N/N=C/c1cc(Cl)ccc1O)c1ccccc1Br,> 26 µM (inactive)
16,O=C(Nc1ccc(Cl)c(Cl)c1)N1CCSC1c1ccco1 (centres undefined),> 26 µM (inactive)
17,OC(COC(c1ccc(F)cc1)c1ccc(F)cc1)CN1CCc2ccccc2C1 (centres undefined),> 26 µM (inactive)
18,CC1=C(C#N)C(C(F)(F)F)(C(F)(F)F)N=C(c2ccco2)N1,> 26 µM (inactive)
19,COc1ccc2nc(C)cc(N/N=C/c3ccc(F)cc3)c2c1,> 26 µM (inactive)
20,Cn1nnnc1N=N/C(=N/Nc1ccccc1)c1ccccc1,> 12 µM (inactive)
21,O=C([O-])c1cc(-c2ccccc2)cc(-c2ccccc2)[n+]1Cc1ccccc1,> 26 µM (inactive)
22,COc1cc(OC)nc(-n2ncc(Br)c(Br)c2=O)n1,> 26 µM (inactive)
23,O=C(NCc1cccnc1)c1ccc([N+](=O)[O-])cc1,> 26 µM (inactive)
